Ends that are not written are not given here.
Tests used:
[1] = tested on: HCC xenograft tumor overexpressing GPC3; test: In vivo handheld dual axes confocal endomicroscope imaging; design: species or system mice
Procedure: GPC3 expression from human HCC xenograft tumors was evaluated in real time by collecting optical sections in vivo using a handheld 5.5 mm diameter dual axes confocal endomicroscope. A solid-state diode laser (300 mW, CNI Laser Inc.) provided illumination at λex=671 nm. A parabolic mirror focused the illumination and collection beams to overlap below the tissue surface with lateral and axial resolution of 2 and 5 μm, respectively. A compact, 3D monolithic scanner located in the distal tip provided large vertical displacements and wide angular deflections to produce images in the vertical (XZ) and horizontal (XY) planes with a FOV of 1000×430 and 1000×1000 μm^2, respectively. NIR fluorescence is collected and passes through a band pass filter (FF01-716/40-25, Semrock) that transmits from 696-736 nm with >93% efficiency for detection with a photomultiplier tube (PMT, H7422PA-40, Hamamatsu) detector. The peptides were injected via the tail vain, and dissected away the skin overlying the tumor to gain access. The distal tip of the endomicroscope was placed in contact with the tumor using a drop of saline to couple the light. Laser power <2 mW on the tissue was used to avoid photobleaching. NIR fluorescence images were collected at 5 frames per sec. 3D volumetric images were reconstructed from a series of images collected in the vertical plane using Amira software (ver 5.4.3, FEI Corporation).
The probe was small enough to be comfortably held in the surgeon's hand during surgery, FIG. 12A, for in vivo imaging of biomarker expression. Its diameter was 5.5 mm and delivered 671 nm near-infrared laser at 2 mW. Mouse carrying HCC xenograft tumor overexpressing GPC3 was first injected with 250 μL 300 μM ALL*-Cy5.5 peptide intravenously and after 2 hours the probe was held in contact with exposed subcutaneous tumor to acquire in vivo peptide binding images, FIG. 12B. Images were collected in either the vertical or horizontal plane with 430 μm depth or 1000×1000 μm^2 area, respectively, at 5 frames per second. With measured lateral resolution of 2.49 μm and axial resolution of 4.98 μm, each peptide stained cell can be clearly seen (arrows). […] Strong uptake (arrows) of ALL*-Cy5.5 in tumor was captured on optical sections collected in the horizontal (1000×1000 μm^2, Video 1) FIG. 12C and vertical (1000×430 μm^2, Video 2) FIG. 12D planes, respectively. A series of vertical cross-section images were reconstructed into 3D MIP volume (Video 3), FIG. 12E.

Hep3B xenograft tumors = test: Ex vivo confocal validation on Hep3B xenograft sections and normal liver; design: species or system mice
Source text: The specimens were also sectioned for collection of confocal images to perform microscopic validation of peptide binding ex vivo.

Hep3B xenograft = test: In vivo NIR laparoscopic imaging of HCC xenograft tumors; design: species or system mice
Procedure: Human HCC cells Hep3B and SK-Hep1 were cultured in Eagle's Minimum Essential Medium (EMEM) at 37° C. in 5% CO2, and supplemented with 10% fetal bovine serum (FBS) and 1% penicillin/streptomycin. Western blotting was performed to validate expression level of GPC3. Cells were diluted in growth factor reduced (GFR) Matrigel Matrix (Corning), and injected into one flank of female (to avoid male dominance within a cage) nude athymic mice (nu/nu, Jackson Laboratory) at 4 to 6 weeks of age with weight between 20 to 25 grams. ˜5×10^6 cells were implanted per mouse.
A standard surgical laparoscope (#49003 AA, HOPKINS® II Straight Forward Telescope 0°, Karl Storz) that is ˜10 mm in diameter and has a 31 cm length rigid sheath was adapted to collect reflectance and fluorescence concurrently. Nude mice with human HCC xenograft 2 weeks post implantation were tail vein injected with 200 μL 300 μM GPC3 peptide ALL*-Cy5.5. During imaging, the mice were anesthetized with inhaled isoflurane. We first used laparoscope with white light illumination to exam the xenograft. Laparoscopic images were taken two hours post injection in both fluorescence and reflection mode simultaneously with excitation solid state diode laser (660-S, Toptica Photonics) to deliver excitation at λex=660 nm into the fiber optic light guide. Images were collected at 5 frames/sec with a laser power of 1.2 mW. Hoechst 33342 (H1399, Life Technologies) at a dose of 10 mg/kg diluted in 200 μL of PBS was delivered intravenously via a tail vein injection to stain the cell nuclei 30 minutes before sacrificing the mouse. Xenograft tumors were resected and confocal fluorescence images were collected with Cy5.5 and DAPI filters 50 μm beneath the surface using a confocal microscope (Leica SPSX Upright 2-Photon Confocal Microscope). Following imaging, resected xenografts were fixed and formalin embedded for immunohistochemistry and H&E staining as described previously.
Fluorescence images of mouse HCC xenograft taken at 2 hrs post peptide injection were registered with corresponding reflectance images taken simultaneously. The fluorescence intensity of each pixel in the image was divided by intensity of corresponding pixel in the reflectance image in order to account for the difference in distance between each pixel and the laser source. A heat map image was generated from the resulting ratios at each pixel. Image segmentation was performed automatically by custom Matlab (Mathworks) software program using Ostu's Method [Otsu, Automatica, 11(285-296): 23-27 (1975)]. Target to background ratio of each processed image was calculated by dividing the average intensity of pixels inside the segmented tumor and that of those within 30 pixels outside of segmentation outline.

[2] = tested on: GPC3 positive tumor (from Hep3B cells); test: In vivo whole body fluorescent imaging of HCC xenograft; details: 2 hours post injection
Procedure: (§1) Mice bearing HCC xenograft tumor (arrowheads) were i.v. injected with 250 μL of 300 μM near NIR GPC3 targeting peptide ALL*-Cy5.5, scrambled control peptide QLE*-Cy5.5 and unlabeled Cy5.5 free dye alone. ALL*-Cy5.5 was also injected in mice bearing GPC3 negative tumor (from SK Hep-1 cells, arrows) as control of EPR effect. Pre-injection imaging confirmed no autofluorescence was present.

[3] = tested on: GPC3 positive tumor (from Hep3B cells); details: mouse, in vivo, iv
Procedure: as §1

[4] = Histology of vital organs post-peptide administration (acute toxicity); format: in vivo, mice; details: 2 hours post-injection; brain, heart, lung, liver, spleen, kidney, stomach, intestine, cecum, colon
Procedure: Vital organs were harvested post peptide administration in mice to evaluate acute toxicity of peptide probe with histology observation. Mice bearing human HCC xenograft tumors were sacrificed 2 hours post-injection of ALL*-Cy5.5.

ALLANHEELFQT (SEQ ID NO: 1) peptide labeled with Cy5.5 via a GGGSK linker on the C-terminus (ALLANHEELFQTGGGSK-{Cy5.5}) [ALL*-Cy5.5]
fluorescent signal relative to QLE*-Cy5.5 ([1]; 2 hours after i.v. injection): 2.9 fold
fluorescent intensity at tumor ([1]; 2 hours after i.v. injection, n=8): 47±13
uptake/staining in tumor on optical sections ([1]; horizontal and vertical planes): Strong uptake
cell surface staining of xenograft sections (Hep3B xenograft tumors; Hep3B xenograft sections, compared with QLE*-Cy5.5): increased cell surface staining
intensity from peptide binding, HCC vs normal (Hep3B xenograft tumors; n=26): 2.22 fold
staining of normal mouse liver (Hep3B xenograft tumors; normal mouse liver sections): Minimal staining
staining of cell surface on excised tumor xenograft (confocal) (Hep3B xenograft; 40× magnification): intense staining
T/B ratio relative to QLE*-Cy5.5 (Hep3B xenograft; NIR laparoscope, 2 hours): 2.8 fold
target-to-background (T/B) ratio (Hep3B xenograft; NIR laparoscope, 2 hours after i.v. injection, n=8): 8.3±1.3
mean tumor signal vs scrambled peptide, GPC3 negative tumor and free dye [2]: significantly higher
target-to-background (T/B) ratio ([2]; mean±SD): 3.91±0.58
time of peak uptake/signal post injection [3]: 2 h
acute peptide toxicity on histology of vital organs [4]: No signs of acute peptide toxicity

Reference: patent publication US11248022B2, “Glypican-3 peptide reagents and methods” (THE REGENTS OF THE UNIVERSITY OF MICHIGAN, priority 2017, dated 2022)
